Drawing on ChEMBL document CHEMBL1132402, “Conformations of trypsin-bound amidine inhibitors of blood coagulant factor Xa by double REDOR NMR and MD simulations” (J Med Chem, 1999), this text covers Ki for two molecules.

For orientation: Ki means the dissociation constant of the complex between target and ligand, obtained from inhibition or displacement.

Assay [1] deals with T1, Serine protease 1 (Bos taurus, UniProt P00760).
T1 sequence (P00760 whole entry): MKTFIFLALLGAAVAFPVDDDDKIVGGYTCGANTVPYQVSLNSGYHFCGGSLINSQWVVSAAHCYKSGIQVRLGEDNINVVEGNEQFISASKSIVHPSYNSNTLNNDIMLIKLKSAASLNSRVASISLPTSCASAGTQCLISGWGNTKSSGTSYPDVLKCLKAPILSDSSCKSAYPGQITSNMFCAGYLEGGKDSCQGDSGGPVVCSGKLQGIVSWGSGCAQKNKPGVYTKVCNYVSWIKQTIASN
As to the kind of experiment: Inhibitory constant against trypsin.

Assay [2] addresses Coagulation factor X (Homo sapiens, UniProt P00742). Description: Inhibitory constant against Coagulation factor Xa (factor Xa). Details: species or system Bos taurus.

Chain of Coagulation factor X (P00742 41-179 limits assumed): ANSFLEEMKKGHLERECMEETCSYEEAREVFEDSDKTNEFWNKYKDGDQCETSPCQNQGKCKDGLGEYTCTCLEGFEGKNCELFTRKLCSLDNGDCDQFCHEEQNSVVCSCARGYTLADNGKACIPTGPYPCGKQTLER
Chain of Coagulation factor X (P00742 235-488 limits assumed): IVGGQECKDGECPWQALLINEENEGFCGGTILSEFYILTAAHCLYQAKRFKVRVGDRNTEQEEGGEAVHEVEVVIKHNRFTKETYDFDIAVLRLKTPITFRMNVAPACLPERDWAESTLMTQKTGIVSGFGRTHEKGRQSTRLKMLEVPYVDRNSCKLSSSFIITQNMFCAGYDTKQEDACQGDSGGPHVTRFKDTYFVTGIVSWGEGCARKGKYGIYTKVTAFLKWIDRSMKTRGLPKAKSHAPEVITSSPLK

For `Cc1c(F)c(Oc2cccc(CN)c2)cc(Oc2cccc(C(=N)N)c2)c1F`, the values for the inhibition constant (Ki) in assay [1] and in assay [2] were 2900 nM and 1400 nM, respectively.
The matching figures for `Cc1c(F)c(Oc2cccc(C(=N)N)c2)cc(Oc2cccc(C(=N)N)c2)c1F`: 740 nM and 12 nM.
